Results from patent publication US20220127267A1, “THIENO[3,2-B] PYRROLE[3,2-D]PYRIDAZINONE DERIVATIVES AND THEIR USE AS PKM2 DERIVATIVES FOR THE TREATMENT OF CANCER, OBESITY AND DIABETES RELATED DISORDERS” (Agios Pharmaceuticals, Inc., priority 2019, published 2022).

Key:
Assay type in all cases: biochemical
PKR WT = PKR WT (Homo sapiens, UniProt P30613); assay: PKR enzyme assay (WT), LDH-coupled, absorbance 340 nm; conditions: wild type PKR enzyme activation
Procedure: (§1) PKR (WT or mutant) enzyme stock solution was diluted to prepare a 1.25× Reaction Mix (without ADP). 1 μL of test compound was first added to the wells followed by 40 μL of 1.25× Reaction Mix (without ADP) and incubated at room temperature (25° C.) for 60 min. The reaction was initiated with 10 μL ADP, bringing the final Reaction Mix to 1x, and the reaction progress was measured as changes in absorbance at 340 nm wavelength at room temperature.
(§2) Test compound preparation: Test compounds were prepared at 50× final concentration in DMSO. 1 to 3 dilutions were made for 11 points (for example 50 μL of 5000 μM compound was added to 100 μL 100% DMSO to yield a 1667 μM, 50 μL of this added to 100 μL DMSO to yield 556 μM, and so forth). The compounds were added to the assay as a 1 to 50 dilution (1 μL in 50 μL) to yield a top concentration of 100 μM, decreasing 3-fold for 11 points.
(§3) Reaction Mix: PKR (1.25-1000 ng/well, 0.025-20 μg/ml depending on the PKR mutant), ADP (0.05-2.3 mM depending on the PKR mutant), PEP (0.031-2 mM depending on the PKR mutant), NADH (180 μM), LDH (0.005 U/μL, Sigma #L3888), 1 mM DTT, 0.03% BSA in 1× Reaction Buffer
(§4) Reaction Buffer: 100 mM KCl, 50 mM Tris pH 7.5, 5 mM MgCl2.

PKR K410E = PKR K410E (Homo sapiens, UniProt P30613, K410E); assay: PKR Mutant Assay (K410E), LDH-coupled, absorbance 340 nm; conditions: mutant PKR K410E enzyme activation
Procedure: as §1, §2, §3, §4

PK R510Q = PK R510Q (Homo sapiens, UniProt P30613, R510Q); assay: PKR Mutant Assay (R510Q), LDH-coupled, absorbance 340 nm; conditions: mutant PKR R510Q enzyme activation
Procedure: as §1, §2, §3, §4

PKM2 WT = PKM2 WT (Homo sapiens, UniProt P14618); assay: PKM2 Assay, LDH-coupled, absorbance 340 nm; conditions: wild type PKM2 enzyme activation
Procedure: as §1, with “PKM2” for “PKR (WT or mutant)”, “ADP (0.4 mM final concentration),” for “ADP,”
as §2
Reaction Mix: PKM2 (5 ng/well, 0.1 μg/ml), ADP (0.4 mM), PEP (0.11 mM), NADH (180 μM), LDH (0.005 U/μL, Sigma #L3888), 1 mM DTT, 0.03% BSA in 1×
as §4

Sequence of PKR K410E (P30613 whole entry K410E): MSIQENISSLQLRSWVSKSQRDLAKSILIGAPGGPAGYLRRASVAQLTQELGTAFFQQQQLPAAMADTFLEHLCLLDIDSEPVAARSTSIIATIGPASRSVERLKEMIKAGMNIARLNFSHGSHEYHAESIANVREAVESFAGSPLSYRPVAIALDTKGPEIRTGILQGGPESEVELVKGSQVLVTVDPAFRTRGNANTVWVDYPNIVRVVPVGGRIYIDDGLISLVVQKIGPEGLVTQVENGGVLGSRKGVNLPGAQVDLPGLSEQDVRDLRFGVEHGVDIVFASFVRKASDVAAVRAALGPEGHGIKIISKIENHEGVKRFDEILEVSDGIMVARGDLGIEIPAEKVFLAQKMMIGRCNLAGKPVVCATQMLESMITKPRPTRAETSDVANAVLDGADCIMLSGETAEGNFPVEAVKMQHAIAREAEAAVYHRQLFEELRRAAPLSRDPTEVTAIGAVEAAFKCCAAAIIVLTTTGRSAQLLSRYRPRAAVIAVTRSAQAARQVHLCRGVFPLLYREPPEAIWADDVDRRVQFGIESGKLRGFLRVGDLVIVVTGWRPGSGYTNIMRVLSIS
Sequence of PKM2 WT (P14618 whole entry): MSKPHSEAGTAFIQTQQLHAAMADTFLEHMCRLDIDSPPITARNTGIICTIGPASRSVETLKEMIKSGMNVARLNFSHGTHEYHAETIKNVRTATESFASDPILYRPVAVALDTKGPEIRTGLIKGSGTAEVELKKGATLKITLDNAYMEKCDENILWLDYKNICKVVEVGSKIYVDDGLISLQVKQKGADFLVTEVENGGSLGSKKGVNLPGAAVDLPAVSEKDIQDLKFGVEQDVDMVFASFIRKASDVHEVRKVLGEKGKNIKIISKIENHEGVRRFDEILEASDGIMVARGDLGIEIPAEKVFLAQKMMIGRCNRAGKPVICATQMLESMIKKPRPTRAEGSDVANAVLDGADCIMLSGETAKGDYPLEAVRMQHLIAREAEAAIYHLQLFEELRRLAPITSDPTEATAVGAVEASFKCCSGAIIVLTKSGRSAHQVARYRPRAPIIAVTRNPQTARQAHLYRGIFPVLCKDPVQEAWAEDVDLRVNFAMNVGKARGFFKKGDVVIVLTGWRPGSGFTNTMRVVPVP
Sequence of PK R510Q (P30613 whole entry R510Q): as the sequence (P30613 whole entry K410E) above, with E410K, R510Q counted along it
Sequence of PKR WT (P30613 whole entry): as the sequence (P30613 whole entry K410E) above, with E410K counted along it

| PKR WT AC50 (PKR WT) | PKR K410E AC50 (PKR K410E) | PK R510Q AC50 (PK R510Q) | AC50 (PKM2 WT) | AC50 (PKR WT) | AC50 (PKR K410E) | AC50 (PK R510Q) | SMILES |
| --- | --- | --- | --- | --- | --- | --- | --- |
| No Fit | No Fit | No Fit | > 800 nM |  |  |  | COc1cccc(Cc2ccc3c4sc(C)cc4n(C)c3c2)c1 [Cpd 2] |
|  |  |  | 301 to 800 nM | > 800 nM | > 800 nM | > 800 nM | COc1cccc(Cn2ncc3c4oc(C)nc4n(C)c3c2=O)c1 [Cpd 3] |
|  |  |  | < 300 nM | < 300 nM | < 300 nM | < 300 nM | COc1cccc(Cn2ncc3c4sc(Cc5ccccc5)cc4n(C)c3c2=O)c1 [Cpd 4] |
|  |  |  | > 800 nM | > 800 nM | > 800 nM | > 800 nM | COc1cccc(Cn2ncc3c4n[nH]cc4n(C)c3c2=O)c1 [Cpd 29] |
|  |  |  | > 800 nM | > 800 nM | > 800 nM | > 800 nM | COc1cccc(Cn2ncc3c4nn(C)cc4n(C)c3c2=O)c1 [Cpd 30] |
|  |  |  | > 800 nM | > 800 nM | > 800 nM | > 800 nM | COc1cccc(Cn2ncc3c4c(Br)cccc4n(C)c3c2=O)c1 [Cpd 32] |
|  |  |  | > 800 nM | > 800 nM | > 800 nM | > 800 nM | COc1cccc(Cn2ncc3c4cc(Cc5ccccc5)ccc4n(C)c3c2=O)c1 [Cpd 34] |
|  |  |  | 301 to 800 nM | > 800 nM | > 800 nM | > 800 nM | COc1cccc(Cn2ncc3c4cc(Br)ccc4n(C)c3c2=O)c1 [Cpd 36] |
|  |  |  | > 800 nM | > 800 nM | > 800 nM | > 800 nM | COC(=O)c1ccc2c(c1)c1cnn(Cc3cccc(OC)c3)c(=O)c1n2C [Cpd 37] |
| No Fit | No Fit | No Fit | > 800 nM |  |  |  | CNC(=O)c1ccc2c(c1)c1cnn(Cc3cccc(OC)c3)c(=O)c1n2C [Cpd 38] |
|  |  |  | > 800 nM | > 800 nM | > 800 nM | > 800 nM | C=Cc1ccc2c(c1)c1cnn(Cc3cccc(OC)c3)c(=O)c1n2C [Cpd 39] |
|  | No Fit | No Fit | < 300 nM | > 800 nM |  |  | CNC(=O)c1ccc2c3cnn(Cc4cccc(OC)c4)c(=O)c3n(C)c2c1 [Cpd 41] |
|  |  |  | > 800 nM | > 800 nM | > 800 nM | > 800 nM | C=Cc1ccc2c3cnn(Cc4cccc(OC)c4)c(=O)c3n(C)c2c1 [Cpd 42] |
|  |  |  | > 800 nM | > 800 nM | > 800 nM | > 800 nM | CCc1ccc2c3cnn(Cc4cccc(OC)c4)c(=O)c3n(C)c2c1 [Cpd 43] |
|  |  |  | 301 to 800 nM | > 800 nM | > 800 nM | > 800 nM | COc1cccc(Cn2ncc3c4cc(CO)ccc4n(C)c3c2=O)c1 [Cpd 44] |
|  |  |  | < 300 nM | > 800 nM | > 800 nM | > 800 nM | COc1cccc(Cn2ncc3c4cc(C#N)ccc4n(C)c3c2=O)c1 [Cpd 45] |
| No Fit |  | No Fit | > 800 nM |  | > 800 nM |  | COc1cccc(Cn2ncc3c4c(C)cccc4n(C)c3c2=O)c1 [Cpd 46] |
|  |  |  | 301 to 800 nM | > 800 nM | > 800 nM | > 800 nM | COc1cccc(Cn2ncc3c4cc(O)ccc4n(C)c3c2=O)c1 [Cpd 48] |
|  |  | No Fit | > 800 nM | > 800 nM | > 800 nM |  | COc1cccc(Cn2ncc3c4cccc(Cc5ccccc5)c4n(C)c3c2=O)c1 [Cpd 59] |
|  |  |  | 301 to 800 nM | > 800 nM | > 800 nM | 301 to 800 nM | COc1cccc(Cn2ncc3c4ccc(Cc5ccccc5)cc4n(C)c3c2=O)c1 [Cpd 60] |
| No Fit | No Fit | No Fit | > 800 nM |  |  |  | COc1cccc(Cn2ncc3c4c(Cc5ccccc5)cccc4n(C)c3c2=O)c1 [Cpd 61] |
|  |  |  | > 800 nM | > 800 nM | > 800 nM | > 800 nM | COc1cccc(Cn2ncc3c4cc(C(F)(F)F)ccc4n(C)c3c2=O)c1 [Cpd 63] |
